We go through 16 compounds from patent publication US20190085024A1, “Alpha-Ketoamide Inhibitors Of Cysteine Proteases” (Phelix Therapeutics, priority 2017, published 2019).

The target of one assay is Calpain. Put plainly: Calpain enzyme assay. It counts as biochemical. Particulars: Ki by Morrison equation; pH 7.5, 5 mM CaCl2.
For the next assay, the target named is Cathepsin L (Homo sapiens, UniProt P07711). As to the kind of experiment: Cathepsin L enzyme assay. The format is biochemical. Particulars: Ki by Morrison equation; pH 5.5, substrate Z-Phe-Arg-Amc; read-out: Cat L. The source says: Two wells contained DMSO only for controls.
Velocity was converted to μM/sec.

Cathepsin L, sequence (P07711 114-333, species assumed): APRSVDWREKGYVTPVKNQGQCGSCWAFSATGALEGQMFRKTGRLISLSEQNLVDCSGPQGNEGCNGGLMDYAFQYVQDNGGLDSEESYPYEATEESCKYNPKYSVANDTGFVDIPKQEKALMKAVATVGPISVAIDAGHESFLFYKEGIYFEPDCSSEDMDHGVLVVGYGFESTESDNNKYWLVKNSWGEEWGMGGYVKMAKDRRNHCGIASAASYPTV

As for `CCC(C)C(NC(=O)C(CC(C)C)NC(=O)OCc1ccccc1)C(=O)C(=O)NC(Cc1ccc2ccccc2c1)C(=O)NC1CC1` (centres unmarked) [PHELIX361, benzyl (1-((1-((1-(cyclopropylamino)-3-(naphthalen-2-yl)-1-oxopropan-2-yl)amino)-4-methyl-1,2-dioxohexan-3-yl)amino)-4-methyl-1-oxopentan-2-yl)carbamate], the Ki at Calpain came to 41.5 nM; on Cathepsin L it was 23.7 nM.

`CCC(C)C(NC(=O)C(CC(C)C)NC(=O)OCc1ccccc1)C(=O)C(=O)NC(C)(C)C(=O)NC(Cc1ccc2ccccc2c1)C(N)=O` (centres unmarked) [PHELIX296, benzyl (1-((1-((1-((1-amino-3-(naphthalen-2-yl)-1-oxopropan-2-yl)amino)-2-methyl-1-oxopropan-2-yl)amino)-4-methyl-1,2-dioxohexan-3-yl)amino)-4-methyl-1-oxopentan-2-yl)carbamate]: the Ki on Calpain was 1550 nM; at Cathepsin L, 1720 nM.

Consider `CCC(C)C(NC(=O)C(CCC(N)=O)NC(=O)Cc1ccccc1)C(=O)C(=O)NCC(=O)NC(Cc1ccc2ccccc2c1)C(N)=O` (centres unmarked) [PHELIX320, N^1-(1-((2-((1-amino-3-(naphthalen-2-yl)-1-oxopropan-2-yl)amino)-2-oxoethyl)amino)-4-methyl-1,2-dioxohexan-3-yl)-2-(2-phenylacetamido)pentanediamide], for which the Ki stood at 38.6 nM at Calpain and 495 nM at Cathepsin L.

Regarding `CCC(C)C(NC(=O)C(CC(C)C)NC(=O)CN1CCOCC1)C(=O)C(=O)NC(Cc1ccc2ccccc2c1)C(N)=O` (centres unmarked) [PHELIX354, N-(1-amino-3-(naphthalen-2-yl)-1-oxopropan-2-yl)-4-methyl-3-(4-methyl-2-(2-morpholinoacetamido)pentanamido)-2-oxohexanamide], the Ki at Calpain came out at 10.1 nM; at Cathepsin L, 19.6 nM.

For `CCC(C)C(NC(=O)C(NC(=O)Cc1ccccc1)C(C)(C)C)C(=O)C(=O)NCC(=O)NC(Cc1ccc2ccccc2c1)C(N)=O` (centres unmarked) [PHELIX323, N-(2-((1-amino-3-(naphthalen-2-yl)-1-oxopropan-2-yl)amino)-2-oxoethyl)-3-(3,3-dimethyl-2-(2-phenylacetamido)butanamido)-4-methyl-2-oxohexanamide], the Ki at Calpain came to 2370 ± 1050 nM; on Cathepsin L, 273 nM.

`CCC(C)C(C(=O)C(=O)NCC(=O)NC(Cc1ccc2ccccc2c1)C(N)=O)N(C)C(=O)C(CC(C)C)NC(=O)OCc1ccccc1` (centres unmarked) [PHELIX305, benzyl (1-((1-((2-((1-amino-3-(naphthalen-2-yl)-1-oxopropan-2-yl)amino)-2-oxoethyl)amino)-4-methyl-1,2-dioxohexan-3-yl)(methyl)amino)-4-methyl-1-oxopentan-2-yl)carbamate]: the Ki at Calpain is 9450 nM; on Cathepsin L, 912 nM.

`CCC(C)C(NC(=O)C(CC(C)C)NC(=O)OCc1ccccc1)C(=O)C(=O)NCC(=O)NCc1ccc2ccccc2c1` (centres unmarked) [PHELIX303, benzyl (4-methyl-1-((4-methyl-1-((2-((naphthalen-2-ylmethyl)amino)-2-oxoethyl)amino)-1,2-dioxohexan-3-yl)amino)-1-oxopentan-2-yl)carbamate]: the Ki turned out to be 6.03 nM at Calpain and 1.14 nM at Cathepsin L.

As to `CCC(C)C(NC(=O)C(Cc1c[nH]cn1)NC(=O)Cc1ccccc1)C(=O)C(=O)NCC(=O)NC(Cc1ccc2ccccc2c1)C(N)=O` (centres unmarked) [PHELIX308, 3-(3-(1H-imidazol-4-yl)-2-(2-phenylacetamido)propanamido)-N-(2-((1-amino-3-(naphthalen-2-yl)-1-oxopropan-2-yl)amino)-2-oxoethyl)-4-methyl-2-oxohexanamide], the Ki at Calpain was found to be 1510 nM; on Cathepsin L, 956 nM.

Turning to `CCC(C)C(NC(=O)C(CC(C)C)NC(=O)OCc1ccccc1)C(=O)C(=O)NC(CC(N)=O)C(=O)NC(Cc1ccc2ccccc2c1)C(N)=O` (centres unmarked) [PHELIX316, benzyl (1-((1-((4-amino-1-((1-amino-3-(naphthalen-2-yl)-1-oxopropan-2-yl)amino)-1,4-dioxobutan-2-yl)amino)-4-methyl-1,2-dioxohexan-3-yl)amino)-4-methyl-1-oxopentan-2-yl)carbamate], the Ki on Calpain is 8.01 nM; on Cathepsin L it was 3.33 nM.

With `CCC(C)C(NC(=O)C(CC(C)C)NC(=O)OCc1ccccc1)C(=O)C(=O)NC(Cc1cnc[nH]1)C(=O)NC(Cc1ccc2ccccc2c1)C(N)=O` (centres unmarked) [PHELIX328, benzyl (1-((1-((1-((1-amino-3-(naphthalen-2-yl)-1-oxopropan-2-yl)amino)-3-(1H-imidazol-5-yl)-1-oxopropan-2-yl)amino)-4-methyl-1,2-dioxohexan-3-yl)amino)-4-methyl-1-oxopentan-2-yl)carbamate], the results for the Ki at Calpain and at Cathepsin L were 35.1 nM and 2.52 nM, respectively.

For the compound `CCC(C)C(NC(=O)C(CC1CC1)NC(=O)Cc1ccccc1)C(=O)C(=O)NCC(=O)NC(Cc1ccc2ccccc2c1)C(N)=O` (centres unmarked) [PHELIX332, N-(2-((1-amino-3-(naphthalen-2-yl)-1-oxopropan-2-yl)amino)-2-oxoethyl)-3-(3-cyclopropyl-2-(2-phenylacetamido)propanamido)-4-methyl-2-oxohexanamide], the Ki amounted to 2.37 nM at Calpain and 1.15 nM on Cathepsin L.

With `CCC(C)C(NC(=O)C(CC(C)C)NC(=O)OCc1ccccc1)C(=O)C(=O)NC(CCCNC(=N)N)C(=O)NC(Cc1ccc2ccccc2c1)C(N)=O` (centres unmarked) [PHELIX330, benzyl (1-((1-((1-((1-amino-3-(naphthalen-2-yl)-1-oxopropan-2-yl)amino)-5-guanidino-1-oxopentan-2-yl)amino)-4-methyl-1,2-dioxohexan-3-yl)amino)-4-methyl-1-oxopentan-2-yl)carbamate], the Ki on Calpain is 21.4 nM; on Cathepsin L, 2.91 nM.

Take `CCC(C)C(NC(=O)C(CC(C)C)NC(=O)OCc1ccccc1)C(=O)C(=O)NCC(=O)NC(Cc1cccnc1)C(N)=O` (centres unmarked) [PHELIX356, benzyl (1-((1-((2-((1-amino-1-oxo-3-(pyridin-3-yl)propan-2-yl)amino)-2-oxoethyl)amino)-4-methyl-1,2-dioxohexan-3-yl)amino)-4-methyl-1-oxopentan-2-yl)carbamate]: the Ki is 9.17 nM at Calpain and 11.2 nM on Cathepsin L.

On to `CCC(C)C(NC(=O)C(CC(C)C)NC(=O)Cc1cncnc1)C(=O)C(=O)NCC(=O)NC(Cc1ccc2ccccc2c1)C(N)=O` (centres unmarked) [PHELIX365, N-(2-((1-amino-3-(naphthalen-2-yl)-1-oxopropan-2-yl)amino)-2-oxoethyl)-4-methyl-3-(4-methyl-2-(2-(pyrimidin-5-yl)acetamido)pentanamido)-2-oxohexanamide], for which the Ki stood at 6.21 nM at Calpain and 17.9 nM on Cathepsin L.

Consider `CCC(C)C(NC(=O)C(CC(C)C)NC(=O)OCc1ccccc1)C(=O)C(=O)NCC(=O)NC(Cc1ccncc1)C(N)=O` (centres unmarked) [PHELIX357, benzyl (1-((1-((2-((1-amino-1-oxo-3-(pyridin-4-yl)propan-2-yl)amino)-2-oxoethyl)amino)-4-methyl-1,2-dioxohexan-3-yl)amino)-4-methyl-1-oxopentan-2-yl)carbamate], for which the results for the Ki at Calpain and on Cathepsin L were 15.5 nM and 4.39 nM, respectively.

Turning to `CC[C@H](C)C(NC(=O)[C@H](CC(C)C)NC(=O)OCc1ccccc1)C(=O)C(=O)NCC(=O)N[C@H](Cc1ccc2ccccc2c1)C(N)=O` (some centres unmarked) [PHELIX304, benzyl (1-((1-((2-((1-amino-3-(naphthalen-2-yl)-1-oxopropan-2-yl)amino)-2-oxoethyl)amino)-4-methyl-1,2-dioxohexan-3-yl)amino)-4-methyl-1-oxopentan-2-yl)carbamate], the values for the Ki on Calpain and at Cathepsin L were 8.24 nM and 0.6 nM, respectively.
